Laboratory results from patent US11591298B2, “Bisaminoquinoline compounds, pharmaceutical compositions prepared therefrom and their use” (THE TRUSTEES OF THE UNIVERSITY OF PENNSYLVANIA, priority 2011, dated 2023).
Read-outs that look alike come from different tables or passages of the source.

Key:
[1] = test system: LN229 (glioma), 1205Lu (melanoma), HT-29 (colon) and c8161 (melanoma) cells; assay: MTT assay (72 hours) in 4 cell lines; type: cell-based; settings: range over the 4 cell lines tested
Experimental: FIGS. 4A, 4B, 4C, 4D. […] White arrows: small puncta; red arrows: dense puncta. Graphs show mean+/−SEM puncta/cell. (4B) Representative electron micrographs of LN229-GFP-LC3 cells treated (4 hours) with DMSO, HCQ 10 μM, or Lys01 10 μM Arrows: Autophagic vesicles. (4C) LC3 immunoblotting of LN229 cells treated for 24 hours an indicated; calculated ratio of LC3II/LC3I ratios for bafilomycin versus control co-treatment. […] (4D) MTT assay (72 hours) for 4 cell lines. Red: Lys01, Blue: Lys02, Purple: Lys03 Green: Lys04 Orange: HCQ. Values presented are means+/−SEM with 5 replicates per treatment.
The MTT assay was used to assess viable cells at 72 hours.

acid phosphatase [2] = settings: 1205Lu xenograft tumors; after 14 days of treatment
LN229 GFP-LC3 cells [3] = assay: Bafilomycin clamp experiment (LC3 immunoblotting); type: cell-based, human; settings: 24 hours; HCQ 10 μM, Lys01 10 μM, rapamycin
Experimental: FIGS. 4A, 4B, 4C, 4D. Autophagy inhibition and cytotoxicity of Lys01 compared to HCQ (4A) Representative images of LN229 GFP-LC3 cells treated as indicated for 4 hours. White arrows: small puncta; red arrows: dense puncta. Graphs show mean+/−SEM puncta/cell. (4B) Representative electron micrographs of LN229-GFP-LC3 cells treated (4 hours) with DMSO, HCQ 10 μM, or Lys01 10 μM Arrows: Autophagic vesicles. (4C) LC3 immunoblotting of LN229 cells treated for 24 hours an indicated; calculated ratio of LC3II/LC3I ratios for bafilomycin versus control co-treatment. Above the dashed line indicates an autophagy inducer or control, below the dashed line indicated an autophagy inhibitor. (4D) MTT assay (72 hours) for 4 cell lines. Red: Lys01, Blue: Lys02, Purple: Lys03 Green: Lys04 Orange: HCQ. Values presented are means+/−SEM with 5 replicates per treatment.
To further characterize the effects of Lys01 on autophagy, LN229 GFP-LC3 cells were treated with Lys01 or HCQ (FIG. 4A). […] Electron micrographs of LN229 GFP-LC3 cells treated with DMSO, HCQ, or Lys01 further characterized the significant morphological difference in the size and number of vesicles produced by blockade of autophagy with these agents (FIG. 4B). Thus, Lys01 produces morphological changes more pronounced than HCQ, a known lysosomal inhibitor, at 10-fold lower concentrations. […]

c8161 xenografts = test system: c8161 xenografts
Experimental: (§1) FIGS. 6A, 6B, 6C, 6D, 6E, 6F, 6G. […] (6A) Representative electron micrographs (12,000×) of c8161 xenograft tumors harvested after 2 days of daily i.p. treatment with PBS, HCQ 60 mg/kg, or Lys05 76 mg/kg. Arrows: autophagic vesicles; scale bar 2 μm (6B) Quantification of mean+SEM number of autophagic vesicles/cell from two representative tumors from each treatment group. (C-D) 1205Lu xenografts were treated with PBS (blue), HCQ 60 mg/kg ip (green), or Lys05 76 mg/kg (red) i.p. every 3/5 days. (6C) Tumor volumes over 14 days (6D) Daily tumor growth rate. (E-G) HT29 xenografts were generated in the flanks of nude mice and treated with PBS, Lys05 10 mg/kg/ip daily, Lys05 40 mg/kg ip daily, or Lys05 80 mg/kg ip every 3/5 days. (6E) Average daily tumor growth rate. (6F) Tumor volumes over 14 days.
(§2) FIGS. 7A, 7B, 7C. […] (7A) Immunoblotting against LC3 in lysates from individual c8161 tumors treated as indicated with daily i.p. injections for 48 hours. […] Arrows: Autophagic vesicle (white); apoptotic cell (orange) (7C) Immunoblotting against LC3 in HT29 xenografts treated with daily dosing (10, 40 mg/kg) or 3/5 days (80 mg/kg) for 14 days.
(§3) Lys05, the trihydrochloride salt of Lys01 was synthesized to enhance aqueous solubility and to enable in vivo studies. […] To investigate the safety of Lys05 and its in vivo effects on autophagy, c8161 xenografts matched for tumor size were treated with intraperitoneal (i.p.) daily PBS, or equimolar doses of HCQ or Lys05 (HCQ 60 mg/kg (138 nmoles/g), Lys05 76 mg/kg (138 nmoles/g)) for 48 hours. […] After 48 hours of treatment mice were euthanized, and tumors were processed for electron microscopy (EM).

cathepsin D [4] = settings: 1205Lu xenograft tumors; 14 days
acid phosphatase [5] = settings: 1205Lu cells; 10 μM; within 24 hours
[6] = Acridine orange staining of acidic vesicles; type: cell-based; settings: 24 hours
mice [7] = test system: mice
mice [8] = settings: for mortality: daily i.p. for 48 hours, HCQ 60 mg/kg, Lys05 76 mg/kg
Experimental: as §3

1205Lu xenografts = assay: 1205Lu xenograft antitumor activity (14 days); type: in vivo, nude mice; settings: for increase in AV/cell compared to control treated tumors: end of 14 days of treatment, HCQ 60 mg/kg
[9] = test system: HT-29 colon cancer xenografts
Experimental: as §1, §2

mice [10] = settings: mouse, in vivo, ip, 76 mg/kg
Experimental: For chronic treatment experiments the 1205Lu melanoma model was chosen over the c8161 xenograft model because c8161 xenografts tend to spontaneously ulcerate confounding tumor measurements and safety analysis. Ten mice bearing 1205Lu xenografts were matched for tumor volume per cohort were assigned to either PBS, HCQ 60 mg/kg i.p. or Lys05 76 mg/kg i.p. (equimolar dosing) dosed for 3 days of daily treatment with 2 days off treatment (3/5 days) for all 3 treatment groups, to allow for symptom recovery and to avoid excess toxicity.
Paneth cell dysfunction, including reduced size and number of eosinophilic lysozyme-containing granules, has previously been described as the pathognomonic sign of autophagy deficiency in mice and a subset of Crohn's disease patients that have a genetic deficiency in the essential autophagy gene ATG16L1 (31).

[11] = type: cell-based; settings: within 30 minutes
c8161 cells [12] = assay: Immunoblotting against LC3 and p62 in c8161 cells; type: cell-based; settings: Lys01 versus Lys05
Experimental: (§4) FIGS. 5A, 5B. […] (5A) Immunoblotting against LC3 and p62 in c8161 cells treated as indicated (5B) MTT assay in c8161 cells at 72 hours. HCQ: Hydroxychloroquine.
as §3

c8161 cells [13] = assay: MTT assay in c8161 cells at 72 hours; type: cell-based; settings: Lys01 versus Lys05
Experimental: as §4, §3

cathepsin D [14] = settings: 1205Lu cells; within 24 hours; compared to HCQ- or PBS-treated cells
LN229 GFP-LC3 cells [15] = assay: GFP-LC3 puncta imaging in LN229 GFP-LC3 cells; type: cell-based, human; settings: within 4 hours
[16] = human, 24 h, 10 μM
Experimental: FIGS. 11A, 11B, 11C, 11D. […] (11B) Concentrations of HCQ or Lys05 in cells and tumor whole cell and lysosomal homogenates. […] Lysotracker puncta (red) per cell was scored for three high powered fields. Blue: nuclear DAPI staining. Data presented is mean+SEM (11D) Fluorescence imaging of c8161 cells treated as indicated for 24 hours and stained with acridine orange (AO): orange: Aggregated AO, green: diffuse AO
FIG. 12. High performance liquid chromatography tandem mass spectrometry assay for HCQ and Lys05. 1205Lu cells (24 hours) and 1205Lu tumors (14 days). WC: Whole cell homogenate L: Lysosomal subfraction HCQ: Hydroxychloroquine

[17] = test system: LC3II/LC3I ratio in LN229 cells; assay: LC3 immunoblotting (LC3II/LC3I ratio) in LN229 cells; type: cell-based, human; settings: 4 hours
Experimental: FIG. 3. Effects of Lys01-Lys04 on LC3 immunoblotting Immunoblotting and quantification of LC3II/LC3I ratio in lysates from LN229 cells treated for 4 hours. The graphs show (mean+/−SD) LC3II/LC3I ratios of each treatment normalized to the LC3II/LC3I ratio of control treated cells for each experiment.
LN229 (human glioblastoma) were treated with Lys01 and derivatives Lys02, Lys03, Lys04, HCQ and CQ. […] LC3 is a ubiquitin-like protein which exists as an unconjugated form (LC3I) or conjugated to AV membranes (LC3II) (25). The ratio of LC3II/LC3I reflects the accumulation of AV in cells, and therefore effective autophagy inhibition.

SMILES: COc1ccc2c(NCCN(C)CCNc3ccnc4cc(OC)ccc34)ccnc2c1 [Lys03]
- IC50 [1]: 24 to 53 µM

SMILES: CN(CCNc1ccnc2cc(Cl)ccc12)CCNc1ccnc2cc(Cl)ccc12.Cl.Cl.Cl [Lys05]
- increase in extralysosomal acid phosphatase activity (acid phosphatase [2]): 1.75 fold
- LC3II/LC3I ratio in bafilomycin treated cells compared to control cells (LN229 GFP-LC3 cells [3]): did not demonstrate an increase
- LC3II/LC3I levels in tumors compared to control- or HCQ-treated tumors (c8161 xenografts; 76 mg/kg i.p. daily, 48 hours): Significantly higher
- increase in the mean number of AV/cell compared to control- or HCQ-treated tumors (c8161 xenografts; Lys05 76 mg/kg i.p. daily, 48 hours, electron microscopy): > 2 fold
- cleaved caspase 3 levels compared to HCQ- or PBS-treated tumors (c8161 xenografts; after 48 hours of treatment): elevated
- increased acid-dependent processing of cathepsin D within the whole cell homogenate (cathepsin D [4]): not observed
- reduction in acid phosphatase activity in the lysosomal fraction versus PBS treated cells (acid phosphatase [5]): 43%
- acidic vesicles (acridine orange) ([6]; 10 μM): accumulation of acidic vesicles
- acidic vesicles (acridine orange) ([6]; 50 μM): no acidic vesicles were observed
- mice euthanized early for bowel obstruction (mice [7]; 80 mg/kg i.p. 3/5 days): 2/8
- bowel thickening and obstruction (mice [7]; mouse, in vivo): limited to 80 mg/kg dose cohort
- mortality (mice [8]): no mice died
- clinical signs (mice [8]; mouse, in vivo, ip, 76 mg/kg): arched backs and lethargy
- tumor growth (growth curves) compared to controls (1205Lu xenografts; Lys05 76 mg/kg i.p. 3/5 days, 14 days): significantly impaired
- reduction in the average daily tumor growth rate compared to vehicle treated controls (1205Lu xenografts; Lys05 76 mg/kg i.p. 3/5 days, p=0.002): 53%
- average daily tumor growth rate (1205Lu xenografts; Lys05 76 mg/kg i.p. 3/5 days, vehicle 31.2): 14.6 mm^3/day
- tumor necrosis (1205Lu xenografts; center of tumors, after 14 days): Extensive tumor necrosis
- increase in AV/cell compared to control treated tumors (1205Lu xenografts; Lys05 76 mg/kg i.p. 3/5 days): 6 fold
- excised tumor weights ([9]; 10 mg/kg daily dosing, end of the experiment): significant antitumor activity
- average daily tumor growth rate ([9]; 10, 40 mg/kg i.p. daily, 80 mg/kg i.p. 3/5 days): significantly impaired in a dose-dependent fashion
- LC3II/LC3I ratio in tumor lysates compared to control ([9]; after 14 days, all Lys05 doses including 10 mg/kg): significant increase
- tumor growth curves compared to control ([9]; all 3 doses of Lys05): significant tumor growth impairment
- clinical signs (mice [10]): lethargic with arched backs
- histology of the ileum: Paneth cells (mice [10]): dysmorphic Paneth cells
- Lysotracker-positive puncta ([11]; 10 μM): fewer Lysotracker-positive puncta
- Lysotracker-positive puncta ([11]; 100 μM): fewer Lysotracker-positive puncta
- LC3II/LC3I ratio (c8161 cells [12]): equivalent dose-dependent increases
- autophagy cargo protein p62 (c8161 cells [12]): accumulation
- IC50 values in the MTT assay (c8161 cells [13]): identical
- acid-dependent processing of immature cathepsin D to the mature activated form within the lysosome (cathepsin D [14]): decreased acid-dependent processing

SMILES: CN(CCN)CCNc1ccnc2cc(Cl)ccc12 [Lys02]
- IC50 [1]: 35 to 91 µM

SMILES: CCN(CCO)CCCC(C)Nc1ccnc2cc(Cl)ccc12 (stereo not shown) [HCQ, hydroxychloroquine, reference compound]
- LC3II/LC3I ratio in bafilomycin treated cells compared to control cells (LN229 GFP-LC3 cells [3]): did not demonstrate an increase
- acidic vesicles (acridine orange) ([6]; dose range): dose-dependent accumulation of acidic vesicles
- mortality (mice [8]): no mice died
- increase in AV/cell compared to control treated tumors (1205Lu xenografts; Lys05 76 mg/kg i.p. 3/5 days): 3 fold
- IC50 [1]: 15 to 42 µM
- Lysotracker-positive puncta ([11]; 10 μM): not observed
- Lysotracker-positive puncta ([11]; 100 μM): significant decrease
- GFP-LC3 punctate fluorescence (LN229 GFP-LC3 cells [15]; 1 μM): observed in a minority of cells
- GFP-LC3 punctate fluorescence (LN229 GFP-LC3 cells [15]; 10 μM): numerous small puncta
- GFP-LC3 punctate fluorescence (LN229 GFP-LC3 cells [15]; 100 μM): larger dense puncta
- concentration in the lysosomal fraction [16]: 13 µM
- concentration in the whole cell homogenate [16]: 8 µM

SMILES: Clc1ccc2c(NCCOCCOCCNc3ccnc4cc(Cl)ccc34)ccnc2c1 [Lys04]
- IC50 [1]: 10 to 17 µM
- dose-response relationship / potency in LC3 autophagy assay [17]: intermediate potency
